Structures are written as SMILES. pIC50: −log10 of the molar value. Like-named read-outs stand apart in the source and are kept apart here. Some results are limits rather than exact numbers.

Test [1] relates to MLKL phosphorylation in HT29-L23 human colorectal adenocarcinoma cells. The test is described as follows: MLKL Phosphorylation High-Content Assay. It counts as cell-based. Particulars: Homo sapiens. A digest of the protocol: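 IC50 and Ymax obtained by 4-parameter logistic fitting of MLKL phosphorylation, measured as mean circ-ring average intensity ratio from high-content images. Staining used an anti-phospho-S358 MLKL antibody overnight at 4° C., following six-hour cell incubation at 37° C.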

Test [2] has as its target T1, His-GST-TVMV-hRIPK1(1-324) (Homo sapiens, UniProt Q13546).
T1 construct: The coding region of human RIPK1(1-324) flanked by NdeI site at 5′ end; made in house; host or cells: Spodoptera frugiperda (Sf9) insect cells, baculovirus
T1 sequence (Q13546 1-324): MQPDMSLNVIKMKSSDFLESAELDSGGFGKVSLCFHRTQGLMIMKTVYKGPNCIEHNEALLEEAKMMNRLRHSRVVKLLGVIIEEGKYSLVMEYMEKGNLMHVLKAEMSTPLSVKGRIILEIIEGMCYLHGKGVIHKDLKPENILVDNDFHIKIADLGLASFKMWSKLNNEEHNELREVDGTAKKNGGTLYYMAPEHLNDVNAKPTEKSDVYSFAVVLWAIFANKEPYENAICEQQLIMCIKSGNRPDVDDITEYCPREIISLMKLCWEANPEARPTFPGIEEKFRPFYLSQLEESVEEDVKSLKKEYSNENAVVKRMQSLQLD
The test is described as follows: RIPK1 HTRF Binding Assay. (In general: In TR-FRET formats the signal depends on donor and acceptor labels being close together.)

Where [3] appears, read: x marks IC50 class 20-200 nM, read-out: pMLKL cell activity 20-200 nM.
[4] abbreviates: x marks IC50 class 20-200 nM, read-out: RIPK1 HTRF binding 20-200 nM.
Setting [5] is: x marks IC50 class <20 nM, read-out: RIPK1 HTRF binding <20 nM.
[6] abbreviates: x marks IC50 class >200 nM, read-out: pMLKL cell activity >200 nM.
The mark [7] stands for this setting: x marks IC50 class <20 nM, read-out: pMLKL cell activity <20 nM.

With `[2H]C([2H])(NC(=O)c1cc(-c2ccn3nc(N)nc3c2)c(C)nc1OC)c1cccc(C(F)(F)F)c1` [Example 335, 5-(2-amino-[1,2,4]triazolo[1,5-a]pyridin-7-yl)-2-methoxy-6-methyl-N-((3-(trifluoromethyl)phenyl)methyl-d2)nicotinamide], the pIC50 in test [1] (setting [3]) and in test [2] (setting [4]) was 6.70 to 7.70 in each case.
With `[2H]C([2H])([2H])Nc1nc2cc(-c3cnc(C)c(C(=O)N[C@H](C)c4cc(OC(F)(F)F)ccc4F)c3)ccn2n1` [Example 375, (R)—N-(1-(2-fluoro-5-(trifluoromethoxy)phenyl)ethyl)-2-methyl-5-(2-((methyl-d3)amino)-[1,2,4]triazolo[1,5-a]pyridin-7-yl)nicotinamide], the pIC50 is 6.70 to 7.70 in test [1] (setting [3]) and more than 7.70 in test [2] (setting [5]).
As to `Cc1ncc(-c2ccn3nc(N)nc3c2)cc1C(=O)NCc1cccnc1OC1CCCC1` [Example 240, 5-{2-amino-[1,2,4]triazolo[1,5-a]pyridin-7-yl}-N-{[2-(cyclopentyloxy)pyridin-3-yl]methyl}-2-methylpyridine-3-carboxamide], the pIC50 in test [1] (setting [3]) is 6.70 to 7.70; in test [2] (setting [5]), more than 7.70.
On to `COc1ncc(-c2ccn3nc(N)nc3c2)cc1C(=O)NCc1ccccc1S(=O)(=O)C(C)C` [Example 104, 5-{2-amino-[1,2,4]triazolo[1,5-a]pyridin-7-yl}-2-methoxy-N-{[2-(propane-2-sulfonyl)phenyl]methyl}pyridine-3-carboxamide], for which the pIC50 in test [1] (setting [6]) was less than 6.70; in test [2] (setting [5]), more than 7.70.
For the compound `[2H]C([2H])(NC(=O)c1cc(-c2ccn3nc(N)nc3c2)cnc1C)c1cc(OC(F)(F)F)ccc1F` [Example 252, 5-{2-amino-[1,2,4]triazolo[1,5-a]pyridin-7-yl}-N-{[2-fluoro-5-(trifluoromethoxy)phenyl](deutero)methyl}-2-methylpyridine-3-carboxamide], the pIC50 in test [1] (setting [7]) and in test [2] (setting [5]) was more than 7.70 throughout.
`Cc1ncc(-c2ccn3nc(N)nc3c2)cc1C(=O)NCc1ccccc1OC(F)(F)C(F)F` [Example 244, 5-{2-amino-[1,2,4]triazolo[1,5-a]pyridin-7-yl}-2-methyl-N-{[2-(1,1,2,2-tetrafluoroethoxy)phenyl]methyl}pyridine-3-carboxamide]: the values for the pIC50 in test [1] (setting [6]) and in test [2] (setting [4]) were less than 6.70 and 6.70 to 7.70, respectively.
Turning to `CC(CCNC(=O)c1cc(-c2ccn3nc(N)nc3c2)cnc1N)c1ccccc1` (centres unmarked) [Example 65, 2-Amino-5-{2-amino-[1,2,4]triazolo[1,5-a]pyridin-7-yl}-N-(3-phenylbutyl)pyridine-3-carboxamide], the pIC50 in test [1] (setting [3]) is 6.70 to 7.70; in test [2] (setting [5]) it was more than 7.70.
For `Cc1ncc(-c2ccn3nc(N)nc3c2)cc1C(=O)NCc1cccc(OCC(F)(F)F)c1` [Example 313, 5-(2-amino-[1,2,4]triazolo[1,5-a]pyridin-7-yl)-2-methyl-N-(3-(2,2,2-trifluoroethoxy)benzyl)nicotinamide], the pIC50 was less than 6.70 in test [1] (setting [6]) and 6.70 to 7.70 in test [2] (setting [4]).
As to `COc1ncc(-c2ccn3nc(N)nc3c2)cc1C(=O)NCc1cccc(OC(C)C)c1` [Example 139, 5-{2-amino-[1,2,4]triazolo[1,5-a]pyridin-7-yl}-2-methoxy-N-{[3-(propan-2-yloxy)phenyl]methyl}pyridine-3-carboxamide], the pIC50 was 6.70 to 7.70 in test [1] (setting [3]) and more than 7.70 in test [2] (setting [5]).
As for `Cc1ncc(-c2ccn3nc(N)nc3c2)cc1C(=O)NCc1cccc(OC(F)(F)F)c1` [Example 246, 5-{2-amino-[1,2,4]triazolo[1,5-a]pyridin-7-yl}-2-methyl-N-{[3-(trifluoromethoxy)phenyl]methyl}pyridine-3-carboxamide], the results for the pIC50 in test [1] (setting [6]) and in test [2] (setting [4]) were less than 6.70 and 6.70 to 7.70, respectively.
Regarding `COc1ncc(-c2ccn3nc(N)nc3c2)cc1C(=O)NCc1cc(F)cc(F)c1O[C@@H]1CCOC1` [Example 363, (R)-5-(2-amino-[1,2,4]triazolo[1,5-a]pyridin-7-yl)-N-(3,5-difluoro-2-((tetrahydrofuran-3-yl)oxy)benzyl)-2-methoxynicotinamide], the pIC50 is 6.70 to 7.70 in test [1] (setting [3]) and more than 7.70 in test [2] (setting [5]).
With `COc1ncc(-c2ccn3nc(N)nc3c2)cc1C(=O)NCc1c(F)cccc1OC1CCCC1` [Example 52, 5-{2-Amino-[1,2,4]triazolo[1,5-a]pyridin-7-yl}-N-{[2-(cyclopentyloxy)-6-fluorophenyl]methyl}-2-methoxypyridine-3-carboxamide], the pIC50 in test [1] (setting [7]) and in test [2] (setting [5]) was more than 7.70 throughout.
For the compound `CCOc1ncc(-c2ccn3nc(N)nc3c2)cc1C(=O)NCc1ccccc1Sc1ccccc1CO` [Example 275, 5-{2-amino-[1,2,4]triazolo[1,5-a]pyridin-7-yl}-2-ethoxy-N-[(2-{[2-(hydroxymethyl)phenyl]sulfanyl}phenyl)methyl]pyridine-3-carboxamide], the pIC50 in test [1] (setting [7]) and in test [2] (setting [5]) was more than 7.70 throughout.
On to `Cc1ccc(-c2ccn3nc(N)nc3c2)nc1C(=O)N[C@H](C)c1cc(OC(F)(F)F)ccc1F` [Example 403, (R)-6-(2-amino-[1,2,4]triazolo[1,5-a]pyridin-7-yl)-N-(1-(2-fluoro-5-(trifluoromethoxy)phenyl)ethyl)-3-methylpicolinamide], for which the figures for the pIC50 in test [1] (setting [3]) and in test [2] (setting [5]) were 6.70 to 7.70 and more than 7.70, respectively.
For the compound `COc1nc(C)c(-c2ccn3nc(N)nc3c2)cc1C(=O)NCc1cc(F)cc(F)c1O[C@@H]1CCOC1` [Example 354, (R)-5-(2-amino-[1,2,4]triazolo[1,5-a]pyridin-7-yl)-N-(3,5-difluoro-2-((tetrahydrofuran-3-yl)oxy)benzyl)-2-methoxy-6-methylnicotinamide], the pIC50 in test [1] (setting [3]) is 6.70 to 7.70; in test [2] (setting [5]), more than 7.70.
With `COc1nc(C)c(-c2ccn3nc(N)nc3c2)cc1C(=O)NCCc1cccc(OC(F)(F)F)c1` [Example 198, 5-{2-amino-[1,2,4]triazolo[1,5-a]pyridin-7-yl}-2-methoxy-6-methyl-N-{2-[3-(trifluoromethoxy)phenyl]ethyl}pyridine-3-carboxamide], the values for the pIC50 in test [1] (setting [6]) and in test [2] (setting [4]) were less than 6.70 and 6.70 to 7.70, respectively.
For `COc1nc(C)c(-c2ccn3nc(N)nc3c2)cc1C(=O)NCc1c(F)cccc1OCC1CCCC1` [Example 220, 5-{2-amino-[1,2,4]triazolo[1,5-a]pyridin-7-yl}-N-{[2-(cyclopentylmethoxy)-6-fluorophenyl]methyl}-2-methoxy-6-methylpyridine-3-carboxamide], the pIC50 is 6.70 to 7.70 in test [1] (setting [3]) and more than 7.70 in test [2] (setting [5]).
With `COc1ncc(-c2ccn3nc(N)nc3c2)cc1C(=O)NCc1ccc(F)cc1OC(=O)N(C)C` [Example 103], the pIC50 in test [1] (setting [6]) is less than 6.70; in test [2] (setting [4]) it was 6.70 to 7.70.
For `COc1ncc(-c2ccn3nc(N)nc3c2)cc1C(=O)NCCC(O)c1ccc(F)cc1` (single isomer, unassigned) [Example 71-1, 5-(2-Amino-[1,2,4]triazolo[1,5-a]pyridin-7-yl)-N-(3-(4-fluorophenyl)-3-hydroxypropyl)-2-methoxynicotinamide], the pIC50 in test [1] (setting [3]) and in test [2] (setting [4]) was 6.70 to 7.70 in each case.
Consider `COc1nc(C)c(-c2ccn3nc(N)nc3c2)cc1C(=O)NCCC(C)c1ccccc1` (centres unmarked) [Example 218, 5-{2-amino-[1,2,4]triazolo[1,5-a]pyridin-7-yl}-2-methoxy-6-methyl-N-(3-phenylbutyl)pyridine-3-carboxamide], for which the pIC50 in test [1] (setting [7]) and in test [2] (setting [5]) was more than 7.70 each time.
Consider `Cc1ncc(C(=O)NCc2c(F)cc(F)cc2OCC2CCCC2)cc1-c1ccn2nc(N)nc2c1` [Example 257, 5-{2-amino-[1,2,4]triazolo[1,5-a]pyridin-7-yl}-N{[2-(cyclopentylmethoxy)-4,6-difluorophenyl]methyl}-6-methylpyridine-3-carboxamide], for which the results for the pIC50 in test [1] (setting [6]) and in test [2] (setting [4]) were less than 6.70 and 6.70 to 7.70, respectively.
`COc1ncc(C(=O)NCc2ccccc2OCC2CC2)cc1-c1ccn2nc(N)nc2c1` [Example 28, 5-{2-Amino-[1,2,4]triazolo[1,5-a]pyridin-7-yl}-N-{[2-(cyclopropylmethoxy)phenyl]methyl}-6-methoxypyridine-3-carboxamide]: the pIC50 in test [1] (setting [3]) is 6.70 to 7.70; in test [2] (setting [5]), more than 7.70.
As for `CC(CCNC(=O)c1cc(-c2ccn3nc(N)nc3c2)nc2ccc(F)cc12)c1ccccc1` (centres unmarked) [Example 67, 2-{2-Amino-[1,2,4]triazolo[1,5-a]pyridin-7-yl}-6-fluoro-N-(3-phenylbutyl)quinoline-4-carboxamide], the pIC50 in test [1] (setting [3]) and in test [2] (setting [4]) was 6.70 to 7.70 in each case.
As to `CCOc1ncc(-c2ccn3nc(N)nc3c2)cc1C(=O)NCc1ccccc1SC(C)C` [Example 266, 5-{2-amino-[1,2,4]triazolo[1,5-a]pyridin-7-yl}-2-ethoxy-N-{[2-(propan-2-ylsulfanyl)phenyl]methyl}pyridine-3-carboxamide], the pIC50 in test [1] (setting [3]) was 6.70 to 7.70; in test [2] (setting [5]), more than 7.70.
For `COc1nc(C)c(-c2ccn3nc(N)nc3c2)cc1C(=O)NCc1ncccc1OCC1CC1` [Example 33, 5-{2-Amino-[1,2,4]triazolo[1,5-a]pyridin-7-yl}-N-{[3-(cyclopropylmethoxy)pyridin-2-yl]methyl}-2-methoxy-6-methylpyridine-3-carboxamide] the same measures were 6.70 to 7.70 and more than 7.70.

(Values after patent US10913738B2 (BRISTOL-MYERS SQUIBB COMPANY, priority 2017, dated 2021).)
